Assay results as given in ChEMBL document CHEMBL4732064, “Structure-activity relationship studies of phenothiazine derivatives as a new class of ferroptosis inhibitors together with the therapeutic effect in an ischemic stroke model” (Eur J Med Chem, 2021).
The source made the active and inactive calls. The rule behind the calls is not given here.

Assays:
[1] = test system: HT-1080; assay: Inhibition of staurosporine-induced apoptotic cell death in human HT-1080 cells assessed as cell viability at 10 uM; type: functional, cell-based
[2] = test system: Rattus norvegicus; assay: Protective activity in Sprague-Dawley rat model of middle cerebral artery occlusion-induced ischemia-reperfusion injury assessed as increase in GSH level at 5 mg/kg, iv measured after 24 hrs of post reperfusion […]; type: functional, organism-based
[3] = test system: MDA-MB-231; assay: Inhibition of erastin-induced ferroptosis in human MDA-MB-231 cells assessed as cell viability incubated for 48 hrs by MTT assay; type: functional, cell-based; conditions: MDA-MB-231, 48 h
[4] = target: T1, Histone acetyltransferase type B catalytic subunit (Homo sapiens, UniProt O14929); assay: Inhibition of HAT1 (unknown origin)
T1 sequence (O14929 whole entry): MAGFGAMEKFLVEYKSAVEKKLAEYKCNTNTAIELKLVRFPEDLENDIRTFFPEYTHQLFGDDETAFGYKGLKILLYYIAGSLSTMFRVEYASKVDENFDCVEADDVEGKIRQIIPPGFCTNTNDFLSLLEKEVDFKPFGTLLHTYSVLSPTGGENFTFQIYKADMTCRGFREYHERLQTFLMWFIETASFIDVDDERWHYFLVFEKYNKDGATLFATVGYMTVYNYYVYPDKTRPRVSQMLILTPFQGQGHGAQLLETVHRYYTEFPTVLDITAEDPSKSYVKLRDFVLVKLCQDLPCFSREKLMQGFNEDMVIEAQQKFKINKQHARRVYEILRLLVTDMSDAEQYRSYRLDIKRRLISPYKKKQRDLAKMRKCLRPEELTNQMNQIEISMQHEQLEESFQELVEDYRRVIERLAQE

[5] = test system: HT-1080; assay: Inhibition of rotenone-induced oxidative cell death in human HT-1080 cells at 10 uM incubated for 24 hrs; type: functional, cell-based
[6] = test system: Rattus norvegicus; assay: Protective activity in Sprague-Dawley rat model of middle cerebral artery occlusion-induced ischemia-reperfusion injury assessed as decrease in cerebral infarction volume at 5 mg/kg, iv measured after 24 hrs of post reperfusion by TTC staining based assay; type: functional, organism-based
[7] = test system: HT-1080; assay: Inhibition of xCT expression in erastin-induced human HT-1080 cell ferroptosis model at 0.01 to 1 uM after 10 hrs by Western blot analysis; type: functional; conditions: dose 0.01-1 µM
[8] = target: T2, Alpha-1B adrenergic receptor (Homo sapiens) (UniProt P35368); assay: Antagonist activity at ADRA1B (unknown origin) by FLIPR assay
T2 sequence (whole entry): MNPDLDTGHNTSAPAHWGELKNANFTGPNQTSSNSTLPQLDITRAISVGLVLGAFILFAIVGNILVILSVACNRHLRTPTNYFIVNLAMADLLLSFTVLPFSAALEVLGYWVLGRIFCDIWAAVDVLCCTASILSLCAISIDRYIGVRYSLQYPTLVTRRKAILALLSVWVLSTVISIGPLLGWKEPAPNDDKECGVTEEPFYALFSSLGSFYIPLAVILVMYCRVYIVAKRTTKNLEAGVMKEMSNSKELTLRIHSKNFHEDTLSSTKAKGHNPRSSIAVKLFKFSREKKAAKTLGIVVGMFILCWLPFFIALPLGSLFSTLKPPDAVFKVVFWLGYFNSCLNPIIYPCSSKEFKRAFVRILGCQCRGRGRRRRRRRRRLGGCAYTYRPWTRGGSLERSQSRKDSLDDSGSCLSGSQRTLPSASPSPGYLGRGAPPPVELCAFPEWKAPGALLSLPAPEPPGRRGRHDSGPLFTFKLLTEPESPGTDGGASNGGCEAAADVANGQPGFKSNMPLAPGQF

[9] = test system: HT-1080; assay: Increase in GSH level in erastin-induced human HT-1080 cell ferroptosis model at 0.01 to 1 uM; type: functional; conditions: dose 0.01-1 µM
[10] = test system: HT-29; assay: Protection against TNFalpha/Smac-mimetic/Z-VAD-FMK-induced necroptosis in human HT-29 cells assessed as cell viability at 10 uM; type: functional, cell-based
[11] = test system: HT-1080; assay: Inhibition of erastin-induced ferroptosis in human HT-1080 cells assessed as cell viability incubated for 48 hrs by MTT assay; type: functional, cell-based; conditions: HT-1080, 48 h

CC(c1ccc(N2CCN(C)CC2)cc1)c1ccc2c(c1)Nc1ccccc1S2 (stereo unspecified)
Activity [1]: inactive | Activity [2]: Active | EC50 [3]: 0.424 nM | IC50 [4]: > 10000 nM | inhibition [5]: inactive | Activity [6]: Active | inhibition [7]: inactive | Activity [8]: inactive | Activity [9]: Active | Activity [10]: inactive | EC50 [11]: 0.5 nM
